pIC50: −log10 of the molar value.
What was measured:
[1] = biological target: Protein farnesyltransferase (Homo sapiens, UniProt P49354+P49356); assay: In vitro inhibitory activity was evaluated against farnesyltransferase (FTase); format: protein-complex assay
[2] = Oral bioavailability of compound determined in dog […] at a dose of 10 mg/kg; format: ADME, organism-based, Canis lupus familiaris; details: in vivo
[3] = Area under curve of compound from zero time to infinity determined in dog […] at a dose of 10 mg/kg; format: ADME, organism-based, Canis lupus familiaris; parameters: time infinity, dose 10 mg/kg, route intravenous; details: in vivo
[4] = Area under curve of compound determined in rat after iv administration at a dose of 10 mg/kg; format: ADME, organism-based; parameters: dose 10 mg/kg, route intravenous; details: in vivo
[5] = (§1) Half life of compound determined in rat after iv administration at a dose of 10 mg/kg; format: ADME, organism-based; parameters: dose 10 mg/kg, route intravenous; details: in vivo
[6] = Area under curve of compound determined in dog after iv administration at a dose of 10 mg/kg; format: ADME, organism-based, Canis lupus familiaris; parameters: dose 10 mg/kg, route intravenous; details: in vivo
Rattus norvegicus = assay: Maximum plasma drug concentration of compound determined in rat after iv administration at a dose of 10 mg/kg; format: ADME, organism-based; parameters: dose 10 mg/kg, route intravenous; details: in vivo
[7] = Oral bioavailability of compound determined in mouse […] at a dose of 10 mg/kg; format: ADME, organism-based; details: in vivo
[8] = Oral bioavailability of compound determined in rat […] at a dose of 10 mg/kg; format: ADME, organism-based; details: in vivo
Canis familiaris = assay: Maximum plasma drug concentration of compound determined in dog […] at a dose of 10 mg/kg; format: ADME, organism-based, Canis lupus familiaris; parameters: dose 10 mg/kg, route intravenous; details: in vivo
[9] = as §1; format: ADME, organism-based; parameters: dose 10 mg/kg, route intravenous; details: in vivo; remark: listed apart in the source
[10] = Tmax of compound determined in dog […] at a dose of 10 mg/kg; format: ADME, organism-based, Canis lupus familiaris; parameters: dose 10 mg/kg, route intravenous; details: in vivo
[11] = Tmax of compound determined in rat after iv administration at a dose of 10 mg/kg; format: ADME, organism-based; parameters: dose 10 mg/kg, route intravenous; details: in vivo
[12] = Area under curve of compound from zero time to infinity determined in rat after iv administration at a dose of 10 mg/kg; format: ADME, organism-based; parameters: time infinity, dose 10 mg/kg, route intravenous; details: in vivo

Row | SMILES | pIC50 [1] | further results
1 | CSCC[C@H](NC(=O)c1ccc(COCc2ccc(-c3ccccn3)o2)cc1-c1ccccc1C)C(=O)O | 7.72 | –
2 | CSCC[C@H](NC(=O)c1ccc(COCc2ccc(-c3ccc(Cl)c(F)c3)o2)cc1-c1ccccc1C)C(=O)O | 8.31 | –
3 | CSCC[C@H](NC(=O)c1ccc(COCc2ccc(-c3ccc(Cl)cc3)o2)cc1-c1ccccc1C)C(=O)[O-].[Li+] | 9.15 | bioavailability [2]: 21.1%; AUC [3]: 1040 ng·h/mL; AUC [4]: 8100 ng·h/mL; half-life [5]: 74.4 min; AUC [6]: 4940 ng·h/mL; Cmax (Rattus norvegicus): 1250 ng/mL; bioavailability [7]: 32%; bioavailability [8]: 30%; Cmax (Canis familiaris): 713 ng/mL; half-life [9]: 78 min; Tmax [10]: 24 min; Tmax [11]: 42 min; AUC [12]: 2390 ng·h/mL
4 | CSCC[C@H](NC(=O)c1ccc(COCc2ccc(-c3cccnc3)o2)cc1-c1ccccc1C)C(=O)O | 8.19 | –
5 | CSCC[C@H](NC(=O)c1ccc(COCc2ccc(-c3ccccc3F)o2)cc1-c1ccccc1C)C(=O)O | 8.20 | –
6 | CSCC[C@H](NC(=O)c1ccc(COCc2ccc(-c3ccc(C)cc3)o2)cc1-c1ccccc1C)C(=O)O | 8.54 | –
7 | CSCC[C@H](NC(=O)c1ccc(COCc2ccc(-c3ccc(SC)cc3)o2)cc1-c1ccccc1C)C(=O)O | 8.21 | –
8 | CSCC[C@H](NC(=O)c1ccc(COCc2ccc(-c3ccc(N(C)C)cc3)o2)cc1-c1ccccc1C)C(=O)O | 8.59 | –
9 | CSCC[C@H](NC(=O)c1ccc(COc2ccccc2)cc1-c1ccccc1)C(=O)O | < 6.00 | –
10 | COc1ccc(-c2ccc(COCc3ccc(C(=O)N[C@@H](CCSC)C(=O)O)c(-c4ccccc4C)c3)o2)cc1 | 8.08 | –
11 | CSCC[C@H](NC(=O)c1ccc(COCc2ccc(-c3ccc(F)cc3)o2)cc1-c1ccccc1C)C(=O)O | 8.82 | –
12 | CSCC[C@H](NC(=O)c1ccc(COCc2ccc(-c3ccccc3C(F)(F)F)o2)cc1-c1ccccc1C)C(=O)O | 8.00 | –

Further lines, with some results ahead:

Row | pIC50 [1] | SMILES | further results
13 | 6.25 | CSCC[C@H](NC(=O)c1ccc(CNCc2ccco2)cc1-c1ccccc1)C(=O)O | –
14 | 7.70 | COc1ccccc1-c1ccc(COCc2ccc(C(=O)N[C@@H](CCSC)C(=O)O)c(-c3ccccc3C)c2)o1 | –
15 | 8.62 | CSCC[C@H](NC(=O)c1ccc(COCc2ccc(-c3ccncc3)o2)cc1-c1ccccc1C)C(=O)O | –
16 | 8.22 | CSCC[C@H](NC(=O)c1ccc(COCc2ccc(-c3ccccc3)o2)cc1-c1ccccc1C)C(=O)O | –
17 | 8.12 | CSCC[C@H](NC(=O)c1ccc(COCc2ccc(-c3cccc(F)c3)o2)cc1-c1ccccc1C)C(=O)O | –
18 | 8.06 | CSCC[C@H](NC(=O)c1ccc(COCc2ccc(-c3cccc(C(F)(F)F)c3)o2)cc1-c1ccccc1C)C(=O)O | –
19 | 7.92 | COc1cccc(-c2ccc(COCc3ccc(C(=O)N[C@@H](CCSC)C(=O)O)c(-c4ccccc4C)c3)o2)c1 | –
20 | 8.54 | CSCC[C@H](NC(=O)c1ccc(COCc2ccc(-c3ccc(C(C)C)cc3)o2)cc1-c1ccccc1C)C(=O)O | –
21 | 8.92 | CSCC[C@H](NC(=O)c1ccc(COCc2ccc(-c3ccc(C=O)cc3)o2)cc1-c1ccccc1C)C(=O)O | –
22 | 8.52 | CSCC[C@H](NC(=O)c1ccc(COCc2ccc(-c3ccc(C(F)(F)F)cc3)o2)cc1-c1ccccc1C)C(=O)O | –
23 | 8.22 | CSCC[C@H](NC(=O)c1ccc(COCc2ccc(-c3cccc([N+](=O)[O-])c3)o2)cc1-c1ccccc1C)C(=O)O | –
24 | 8.52 | COC(=O)[C@H](CCSC)NC(=O)c1ccc(COCc2ccc(Br)o2)cc1-c1ccccc1C | –
25 | 8.18 | CSCC[C@H](NC(=O)c1ccc(COCc2ccc(-c3ccc(C(C)=O)cc3)o2)cc1-c1ccccc1C)C(=O)O | –
